Assay results taken from PMC4744035, “In Vivo, In Vitro, and In Silico Characterization of Peptoids as Antimicrobial Agents” (PLoS ONE, 2016).
Square brackets hold non-standard residues; d marks the D form. Peptide text beside a SMILES is read from it. Nspe = C[C@H](NCC(=O)O)c1ccccc1; Nlys = NCCCCNCC(=O)O

What was measured:
Assay in all cases: microbe, parasite or virus in culture
E. faecalis F43559 (VRE) = details: E. faecalis F43559 (VRE)
In short: (§1)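 Agents were diluted serially at 10x in acetic acid/BSA, added to Mueller Hinton medium, then inoculated with bacteria at 2–7 x 10^5 CFU/mL. Plates were incubated overnight at 37°C and scored for growth.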

P. aeruginosa 198 (MDR) = details: P. aeruginosa 198 (MDR)
In short: as §1

[1] = test system: P. aeruginosa LES400 (MDR); details: P. aeruginosa LES400 (MDR)
In short: as §1

[2] = test system: P. aeruginosa H1027 (MDR); details: P. aeruginosa H1027 (MDR)
In short: as §1

[3] = test system: K. pneumonia 61962 (ESBL); details: K. pneumonia 61962 (ESBL)
In short: as §1

E. coli 64771 (ESBL) = details: E. coli 64771 (ESBL)
In short: as §1

S. aureus C623 (MRSA) = details: S. aureus C623 (MRSA)
In short: as §1

E. faecalis ATCC29212 = details: E. faecalis ATCC29212
In short: as §1

S. aureus ATCC25923 = details: S. aureus ATCC25923
In short: as §1

E. faecium mic80 (VRE) = details: E. faecium mic80 (VRE)
In short: as §1

[4] = test system: E. cloacae 218R Class C β-lactamase; details: E. cloacae 218R Class C β-lactamase
In short: as §1

E. coli 63103 (ESBL) = details: E. coli 63103 (ESBL)
In short: as §1

Measured: MIC

C[C@@H](c1ccccc1)N(CC(N)=O)C(=O)CN(C(=O)CN(CCCCN)C(=O)CN(C(=O)CN(C(=O)CN(CCCCN)C(=O)CN(C(=O)CN(C(=O)CN(CCCCN)C(=O)CN(C(=O)CN(C(=O)CNCCCCN)[C@@H](C)c1ccccc1)[C@@H](C)c1ccccc1)[C@@H](C)c1ccccc1)[C@@H](C)c1ccccc1)[C@@H](C)c1ccccc1)[C@@H](C)c1ccccc1)[C@@H](C)c1ccccc1 [Peptoid 1, H-(NLys-Nspe-Nspe)4-NH2] (H-[Nlys][Nspe][Nspe][Nlys][Nspe][Nspe][Nlys][Nspe][Nspe][Nlys][Nspe][Nspe]-NH2)
4 µg/mL: E. faecalis F43559 (VRE) | P. aeruginosa 198 (MDR) | [3]
2 µg/mL: all other assays above
